Results as given in patent US9913838B2, “Methods of treating cancer using compositions comprising perillyl alcohol derivative” (NEONC TECHNOLOGIES INC., priority 2010, dated 2018).
Like-named read-outs stand apart in the source and are kept apart here. One block for each molecule: values may come before it.

What was measured:
MDA-MB-231 = experiment: cells
Procedure: (§1) Depending on the cell line (and plating efficiency), 200-350 cells were seeded into each well of a 6-well plate. […] Thereafter, the drugs were removed, fresh growth medium was added, and the cells were kept in culture undisturbed for 12-16 days, during which time the surviving cells spawned colonies of descendants. Colonies (defined as groups of >50 cells) were visualized by staining for 4 hours with 1% methylene blue (in methanol), and then were counted.
(§2) In the case of O6-BG treatment, cells were pretreated with 10 μM O6-BG for one hour before addition of TMZ or TMZ-POH. After 24 hours, another 10 μM O6-BG was added to the medium. Another 24 hours later, drug-laced medium was removed, and fresh medium without drugs was added. Thereafter, cells remained undisturbed until staining with methylene blue.
(§3) The cytotoxic potency of TMZ-POH, was analyzed by colony formation assay (CFA) in a variety of human breast cancer cell lines and compared to the cytotoxicity of TMZ. We used estrogen receptor positive cells MCF7 and T47D, the triple-negative lines MDA-MB-231, MDA-MB-468, and HCC-1937, and a brain-seeking variant of the 231 cell line, MDA-MB-231-br.
Thus, we tested whether simply mixing the two compounds TMZ and POH could mimic the effects of the TMZ-POH conjugate. MDA-MB-231 cells were treated with the individual compounds (TMZ-POH, TMZ or POH) alone, or with an equimolar mix of TMZ plus POH, and cell survival was analyzed by CFA.

[1] = test system: γ-H2AX, activated caspase 7 and cleaved PARP; experiment: DNA damage and cell death marker analysis in MDA-MB-231 cells (Western blot); format: cell-based, human; conditions: MDA-MB-231, 20 μM, after 5 days of treatment; in words
Procedure: FIGS. 25A-25B show DNA damage and cell death marker analysis, where MDA-MB-231 cells were used for Western blot analysis of expression levels for markers of DNA damage (γ-H2AX) and cell death (activated caspase 7 and cleaved PARP). In FIG. 25A, cells were treated with 15 μM TMZ-POH and harvested every 24 hours up to 6 days; control cells remained untreated, or received vehicle (vh.) only. In FIG. 25B, cells were treated with 20 μM of either TMZ-POH, TMZ, or POH individually, or with 20 μM TMZ combined with 20 μM POH (TMZ+POH) and harvested after 24 hours or 5 days; control cells remained untreated, or received vehicle (vh.) only. In the case of caspase 7, only the activated (cleaved) form is shown (cl. C-7).
(§4) Total cell lysates were analyzed by Western blot analysis as described in P. Pyrko et al. Downregulation of survivin expression and concomitant induction of apoptosis by celecoxib and its non-cyclooxygenase-2-inhibitory analog, dimethyl-celecoxib (DMC), in tumor cells in vitro and in vivo. Mol Cancer 5 (2006) 19. The primary antibodies were purchased from Cell Signaling Technology (Beverly, Mass.) or Santa Cruz Biotechnology, Inc. (Santa Cruz, Calif.) and used according to the manufacturers' recommendations. All immunoblots were repeated at least once to confirm the results.
It is known that GBM cells treated with physiological concentrations of TMZ (<100 μM) in vitro can survive for several (5-7) days seemingly unaffected before substantial cell death becomes apparent. We observed a similar phenotype when breast cancer cell lines were treated with TMZ-POH, i.e., cell cultures only began to deteriorate approximately a week after the onset of drug treatment. In order to characterize TMZ-POH-induced cell death in greater detail, we treated MDA-MB-231 cells with 15 μM of the drug and collected cell lysates daily over the course of 6 days. The lysates were analyzed by Western blot for the presence of two apoptosis markers, cleaved (i.e. activated) caspase 7 and cleaved PARP-1 (poly ADP-ribose polymerase-1), along with the DNA damage marker γ-H2AX.
As shown in FIGS. 20A-20B above, an equimolar combination of TMZ+POH was unable to achieve the same potency in blocking colony survival as the TMZ-POH conjugate. […] We treated cells with the same concentration (20 μM) of TMZ-POH, TMZ, POH, or TMZ combined with POH (TMZ+POH), and analyzed the induction of γ-H2AX, activated caspase 7, and cleaved PARP. […] Thus, the results from the cell survival assay (FIGS. 20A-20B) correlated closely with the effects of these compounds on DNA damage and apoptosis markers (FIG. 25B), and in all cases TMZ-POH clearly generated the strongest anticancer impact.

[2] = test system: USC-02 glioma cancer stem cells; experiment: MTT cytotoxicity assay, USC-02 glioma cancer stem cells; format: cell-based; conditions: TMZ 0-400 uM, POH 0-2 mM, in words
From the text: Cancer Lett. 2011 Mar. 28; 302(2):100-8.

[3] = test system: TMZ resistant (U251TR) U251 cells; experiment: Colony forming assay, TMZ resistant U251TR cells; format: cell-based, human; conditions: in words
Procedure: (§5) Colony forming assays were carried out after cells were treated with TMZ alone, POH alone, and the TMZ-POH conjugate. […] Cancer Lett. 2011 Mar. 28; 302(2):100-8.

[4] = test system: TMZ sensitive (U251) cells; experiment: Colony forming assay, TMZ sensitive U251 cells; format: cell-based, human; conditions: in words
Procedure: as §5

U251 human glioma cells = experiment: MTT cytotoxicity assay, U251 glioma cells; conditions: for cytotoxicity (MTT assay): U251, result in words
From the text: (§6) In vitro efficacy of the present composition can be determined using methods well known in the art. For example, the cytoxicity of the present monoterpene (or sesquiterpene) and/or the therapeutic agents may be studied by MTT [3-(4,5-dimethylthiazol-2-yl)-2,5-diphenyl tetrazolium bromide] cytotoxicity assay. MTT assay is based on the principle of uptake of MTT, a tetrazolium salt, by metabolically active cells where it is metabolized into a blue colored formazon product, which can be read spectrometrically. J. of Immunological Methods 65: 55 63, 1983. The cytoxicity of the present monoterpene (or sesquiterpene) derivative and/or the therapeutic agents may be studied by colony formation assay. Functional assays for inhibition of VEGF secretion and IL-8 secretion may be performed via ELISA. Cell cycle block by the present monoterpene (or sesquiterpene) derivative and/or the therapeutic agents may be studied by standard propidium iodide (PI) staining and flow cytometry. Invasion inhibition may be studied by Boyden chambers. In this assay a layer of reconstituted basement membrane, Matrigel, is coated onto chemotaxis filters and acts as a barrier to the migration of cells in the Boyden chambers. Only cells with invasive capacity can cross the Matrigel barrier. Other assays include, but are not limited to cell viability assays, apoptosis assays, and morphological assays.
(§7) First cytotoxicity assays were carried out after cells were treated with dimethyl-celecoxib (DMC) alone.
(§8) Then U87, A172 and U251 cells were treated with dimethyl celecoxib bisPOH carbamate (POH−DMC) (e.g., synthesized by the method in Example 1), and the MTT cytotoxicity assays performed (FIG. 2).
(§9) First cytotoxicity assays were carried out after cells were treated with temozolomide (TMZ) alone, the standard alkylating agent used in the treatment of malignant gliomas.
(§10) Then TMZ-resistant glioma cell lines U87, A172 and U251 cells were treated with TMZ-POH (e.g., synthesized by the method in Example 3).
(§11) To compare the cytotoxicity of Rolipram POH Carbamate (POH-Rolipram) (e.g., synthesized by the method in Example 5) with rolipram, […] inducing differentiation and apoptosis in glioma cells, A172, U87, U251 and LN229 human glioma cells were treated with either POH-Rolipram or rolipram for 48 hours.
MTT cytotoxicity assays were carried out after cells were treated with the TMZ-POH conjugate. The MTT cytotoxicity assays were carried out as described in Chen T C, et al. Green tea epigallocatechin gallate enhances therapeutic efficacy of temozolomide in orthotopic mouse glioblastoma models. Cancer Lett. 2011 Mar. 28; 302(2):100-8.

LN229 human glioma cells = experiment: cells
From the text: as §6, §11

U87 human glioma cells = experiment: MTT cytotoxicity assay, U87 glioma cells; conditions: for cytotoxicity (MTT assay): U87, result in words
From the text: as §6, §7, §8, §9, §10, §11

A172 human glioma cells = experiment: MTT cytotoxicity assay, A172 glioma cells; conditions: for cytotoxicity (MTT assay): A172, result in words
From the text: as §6, §7, §8, §9, §10, §11

[5] = test system: subcutaneous U-87 gliomas; experiment: Nude mouse subcutaneous glioma model, local application; format: in vivo, nude mice; conditions: local application via Q-tip daily over 8 weeks; ranking in words
Procedure: Inhibition of tumor growth by butyryl-POH was studied in a nude mouse subcutaneous glioma model. Mice were injected with U-87 glioma cells (500,000 cells/injection) and allowed to form a palpable nodule over two weeks. Once palpable nodule was formed, the mice were treated with local application of various compounds as indicated in FIGS. 9A and 9B via a Q-tip (1 cc/application/day) over a period of 8 weeks.

MCF7 = experiment: Colony formation assay, MCF7; conditions: pre-treated with O6-BG for 60 minutes; MCF7
Procedure: as §1, §2, §3

MDA-MB-468 = experiment: Colony formation assay, MDA-MB-468; conditions: pre-treated with O6-BG for 60 minutes; MDA-MB-468
Procedure: as §1, §2, §3

MGMT = experiment: Western blot of MGMT protein levels in MDA-MB-468 cells; format: cell-based, human; conditions: MDA-MB-468, 17 hours; in words
Procedure: In FIG. 21C, MDA-MB-468 cells were treated with the indicated concentrations of TMZ-POH, TMZ, or O6-BG for 17 hours before harvest of cellular lysates. vh.=cells treated with vehicle only.
as §4
The major cytotoxic DNA lesion set by TMZ is methylation of O6-guanine, and it is well known that removal of this methyl group by MGMT leads to rapid degradation of the DNA repair protein.

231-MGMT-1 = experiment: Colony formation assay, MGMT-transfected 231-MGMT-1; format: cell-based, human; conditions: pre-treated with O6-BG for 60 minutes; 231-MGMT-1
Procedure: as §1, §2
(§12) MDA-MB-231 cells were co-transfected in 6-well plates with the use of Lipofectamine 2000 (Invitrogen, Carlsbad, Calif.) according to manufacturer's instructions. 2 μg pSV2MGMT (containing the human MGMT cDNA) was combined with 0.2 μg pSV2neo (containing the neomycin gene for selection of cells in G418). Both plasmids were provided by Bernd Kaina (Mainz, Germany). Individual clones of transfected cells were selected in medium containing 750 μg/mL G418 and propagated in 250 μg/mL G418. G418 was obtained as G418 disulfate salt from Sigma-Aldrich and dissolved in PBS at 75 mg/mL. Selection medium was removed from cells several days before experimental drug treatment.
(§13) To investigate the latter, we stably transfected MGMT-negative MDA-MB-231 cells with MGMT cDNA and isolated individual clones. […] Both clones were treated with increasing concentrations of TMZ-POH and TMZ and analyzed by CFA.

231-MGMT-2 = experiment: Colony formation assay, MGMT-transfected 231-MGMT-2; format: cell-based, human; conditions: pre-treated with O6-BG for 60 minutes; 231-MGMT-2
Procedure: as §1, §2, §12, §13

TMZ-resistant tumors = conditions: O6-BG and TMZ, cited from earlier work

SMILES: C=C(C)[C@@H]1CC=C(CO)CC1 [POH, Perillyl alcohol]
- concentrations required in order to become cytotoxic (MDA-MB-231): above 100 μM
- IC50 (MDA-MB-231; Homo sapiens, MDA-MB-231, 48 h, read-out: IC50 (concentration required to decrease colony formation by 50%)): ~700 µM
- induction of γ-H2AX, activated caspase 7, and cleaved PARP [1]: inactive
- cytotoxicity (MTT assay) [2]: demonstrated cytotoxicity
- cytotoxicity (colony forming assay) [3]: demonstrated cytotoxicity
- cytotoxicity (colony forming assay) [4]: demonstrated cytotoxicity

SMILES: C=C(C)C1CC=C(COC(=O)N(C(=O)OCC2=CCC(C(=C)C)CC2)S(=O)(=O)c2ccc(-n3nc(C(F)(F)F)cc3-c3cc(C)ccc3C)cc2)CC1 (centres unmarked) [POH−DMC]
- cytotoxicity (MTT assay) (U251 human glioma cells): much better cytotoxicity than DMC alone
- cytotoxicity (MTT assay) (U87 human glioma cells): much better cytotoxicity than DMC alone
- cytotoxicity (MTT assay) (A172 human glioma cells): much better cytotoxicity than DMC alone

SMILES: C=C(C)C1CC=C(COC(=O)CCC)CC1 (centres unmarked) [Butyryl-POH]
- inhibition of tumor growth [5]: greatest inhibition of tumor growth

SMILES: Nc1nc(OCc2ccccc2)c2nc[nH]c2n1 [O6-BG, O6-benzylguanine, reference compound]
- effect of O6-BG on cytotoxic outcome of TMZ-POH and TMZ treatment (MCF7): increased the cytotoxic outcome
- effect of O6-BG on survival of cells treated with TMZ-POH or TMZ (MDA-MB-231; pre-treated with O6-BG for 60 minutes, MDA-MB-231): had no effect
- effect of O6-BG on cytotoxic outcome of TMZ-POH and TMZ treatment (MDA-MB-468): increased the cytotoxic outcome
- MGMT protein levels (MGMT): strongly decreases MGMT protein levels
- effect of O6-BG on toxicity of TMZ-POH and TMZ (231-MGMT-1): greatly enhanced toxicity
- effect of O6-BG on toxicity of TMZ-POH and TMZ (231-MGMT-2): greatly enhanced toxicity
- fraction of patients with restored TMZ-sensitivity (TMZ-resistant tumors; patients with GBM, no significant effect): 3%
- fraction of patients with restored TMZ-sensitivity (TMZ-resistant tumors; patients with anaplastic glioma): 16%

Further lines, with some results ahead:

- IC50 (LN229 human glioma cells; LN229 cells, 48 hours): 100 µM
SMILES: C=C(C)C1CC=C(COC(=O)N2CC(c3ccc(OC)c(OC4CCCC4)c3)CC2=O)CC1 (centres unmarked) [POH-rolipram, 4-(3-cyclopentyloxy-4-methoxyphenyl)-2-oxo-pyrrolidine-1-carboxylic acid 4-isopropenyl cyclohex-1-enylmethyl ester]
- cytotoxicity (MTT assay) (U251 human glioma cells): substantially higher kill rates compared to rolipram alone
- IC50 (U251 human glioma cells; U251 cells, 48 hours): 50 µM
- cytoxicity (U251 human glioma cells; U251 cells, at 100 uM): ~100%
- cytotoxicity (MTT assay) (LN229 human glioma cells): substantially higher kill rates compared to rolipram alone
- cytotoxicity (MTT assay) (U87 human glioma cells): substantially higher kill rates compared to rolipram alone
- IC50 (U87 human glioma cells; U-87 cells, 48 hours): 180 µM
- cytotoxicity (MTT assay) (A172 human glioma cells): substantially higher kill rates compared to rolipram alone
- IC50 (A172 human glioma cells; A-172 cells, 48 hours): 50 µM

- IC50 (LN229 human glioma cells; Homo sapiens, LN-229, 48 h): > 100 µM
SMILES: COc1ccc(C2CNC(=O)C2)cc1OC1CCCC1 (centres unmarked) [rolipram, reference compound]
- IC50 (U251 human glioma cells; Homo sapiens, U-251, 48 h): 170 µM
- plateau cytotoxicity (U251 human glioma cells; U251 cells): 60%
- IC50 (U87 human glioma cells; Homo sapiens, U-87 MG, 48 h): > 1000 µM
- IC50 (A172 human glioma cells; Homo sapiens, A 172, 48 h): ~1000 µM
